The target of one assay is T1, human plasmin (Homo sapiens, UniProt P00747).
T1 construct: purchased Enzyme Research Laboratories, Inc
Nature of the assay: Plasmin chromogenic substrate (S-2366) assay. Format: biochemical. Conditions: 30 minute preincubation, HBSA buffer. The procedure:
The substrate was made up in deionized water followed by dilution in HBSA prior to the assay in which the final concentration was 300 micromolar (about 2.5-times Km). Purified human plasmin was obtained from Enzyme Research Laboratories, Inc. The enzyme was diluted into HBSA prior to assay in which the final concentration was 1.0 nM.

The next assay addresses Urokinase (Abbokinase) (Homo sapiens, UniProt P00749). Nature of the assay: Urokinase chromogenic substrate (S-2444) IC50 assay.
The target of the next assay is T2, Human rt-PA (Activase) (Homo sapiens, UniProt P00750).
T2 construct: purchased Genentech Inc
T2 sequence (P00750 36-562): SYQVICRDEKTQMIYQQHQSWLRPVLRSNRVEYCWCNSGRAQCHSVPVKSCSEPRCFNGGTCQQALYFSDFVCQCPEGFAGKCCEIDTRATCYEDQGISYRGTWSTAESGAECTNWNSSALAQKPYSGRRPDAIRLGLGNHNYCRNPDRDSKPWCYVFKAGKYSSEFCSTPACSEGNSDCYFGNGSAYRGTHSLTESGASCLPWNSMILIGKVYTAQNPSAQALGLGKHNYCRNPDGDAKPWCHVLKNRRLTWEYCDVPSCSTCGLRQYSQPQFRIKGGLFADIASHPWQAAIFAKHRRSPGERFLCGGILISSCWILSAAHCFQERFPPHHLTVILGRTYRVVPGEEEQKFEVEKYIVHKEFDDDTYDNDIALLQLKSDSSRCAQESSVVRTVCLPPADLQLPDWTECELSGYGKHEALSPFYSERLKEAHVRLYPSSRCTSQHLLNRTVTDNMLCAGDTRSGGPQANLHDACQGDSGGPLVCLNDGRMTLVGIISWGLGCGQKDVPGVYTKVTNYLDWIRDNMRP
Description: Recombinant tissue plasminogen activator (rt-PA) chromogenic assay. Type of assay: biochemical. The note with it: 30 minute preincubation, HBSA buffer; read-out: tPA IC50. The procedure: rt-PA catalytic activity was determined using the substrate, Pefachrome t-PA (CH3SO2-D-hexahydrotyrosine-glycyl-L-arginine-p-nitroaniline, obtained from Pentap harm Ltd.). The substrate was made up in deionized water followed by dilution in HBSA prior to the assay in which the final concentration was 500 micromolar (about 3-times Km). Human rt-PA (Activase®) was obtained from Genentech Inc. The enzyme was reconstituted in deionized water and diluted into HBSA prior to the assay in which the final concentration was 1.0 nM.

Where [1] appears, read: read-out: uPA IC50, 30 minute preincubation, HBSA buffer.

Like-named read-outs stand apart in the source and are kept apart here. Non-standard residues stand in square brackets, D forms with d. Residues, ends and D or L forms follow the SMILES beside them. *: point of attachment. Fmoc = O=C(OCC1c2ccccc2-c2ccccc21)*; d(aThr) = C[C@@H](O)[C@@H](N)C(=O)O; AllylGly = C=CC[C@H](N)C(=O)O; ΔPro = O=C(O)[C@@H]1C=CCN1; NMeA = CN[C@@H](C)C(=O)O; Pra = C#CC[C@H](N)C(=O)O; dDap = NC[C@@H](N)C(=O)O; Aze = O=C(O)[C@@H]1CCN1; Cbz = O=C(OCc1ccccc1)*; Sar = CNCC(=O)O; Moc = COC(=O)*

T1 sequence (P00747 581-810 limits assumed): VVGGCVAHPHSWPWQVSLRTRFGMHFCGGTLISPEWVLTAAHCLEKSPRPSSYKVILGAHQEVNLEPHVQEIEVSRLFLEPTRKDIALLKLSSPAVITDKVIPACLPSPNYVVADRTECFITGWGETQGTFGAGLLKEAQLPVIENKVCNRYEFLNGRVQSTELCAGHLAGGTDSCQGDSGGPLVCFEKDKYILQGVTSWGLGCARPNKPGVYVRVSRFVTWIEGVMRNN
T1 sequence (P00747 97-580 partner limits assumed): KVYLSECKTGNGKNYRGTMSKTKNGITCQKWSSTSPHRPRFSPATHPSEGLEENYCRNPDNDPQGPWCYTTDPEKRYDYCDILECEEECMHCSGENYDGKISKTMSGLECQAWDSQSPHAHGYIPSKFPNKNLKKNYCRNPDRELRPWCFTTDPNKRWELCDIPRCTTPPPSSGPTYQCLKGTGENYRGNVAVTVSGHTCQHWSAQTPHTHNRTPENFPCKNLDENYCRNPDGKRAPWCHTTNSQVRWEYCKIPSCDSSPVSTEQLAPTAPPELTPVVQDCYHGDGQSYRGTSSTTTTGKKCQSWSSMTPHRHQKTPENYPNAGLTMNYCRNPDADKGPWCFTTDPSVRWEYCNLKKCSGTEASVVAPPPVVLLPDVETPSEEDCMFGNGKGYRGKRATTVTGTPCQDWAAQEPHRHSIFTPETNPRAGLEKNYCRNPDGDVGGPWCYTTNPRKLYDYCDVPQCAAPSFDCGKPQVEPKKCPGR
Description for Urokinase (Abbokinase): The buffer used for all assays was HBSA (10 mM HEPES, pH 7.5, 150 mM sodium chloride, 0.1% bovine serum albumin).
The initial velocity of chromogenic substrate hydrolysis was measured by the change in absorbance at 405 nm using a Thermo Max® Kinetic Microplate Reader over a 5 minute period in which less than 5% of the added substrate was utilized.
The assay buffer was HBS (10mM HEPES, 150mM sodium chloride pH 7.4) with 0.1% BSA.

Broadly, the IC50 is the midpoint of a concentration-inhibition curve. On to `COC(=O)NC[C@@H](NC(=O)OCc1ccccc1)C(=O)N[C@@H](C)C(=O)N[C@H](C=O)CCCNC(=N)N` [Compound 43, N-α-benzyloxycarbonyl-N-β-methyloxycarbonyl-D-2,3-diaminopropionyl-alanyl-argininal] (Cbz-[dDap](Moc)-Ala-Arg-aldehyde), for which the IC50 at human plasmin is 0.25 to 2.5 µM; against Urokinase (Abbokinase) it was 0.25 to 2.5 µM; on Human rt-PA (Activase), greater than 2.5 µM.

`CC[C@@H](NC(=O)OCc1ccccc1)C(=O)N[C@@H](C)C(=O)NC(C=O)CCCNC(=N)N` (some centres unmarked) [Compound 44]: the IC50 against human plasmin was 0.25 to 2.5 µM; on Urokinase (Abbokinase), 0.25 to 2.5 µM; on Human rt-PA (Activase), greater than 2.5 µM.

Take `C#CC[C@H](NC(=O)[C@@H](CO)NC(=O)OCc1ccccc1)C(=O)N[C@H](C=O)CCCNC(=N)N` [Compound 51, benzyloxycarbonyl-D-seryl-L-propargylglycyl-argininal] (Cbz-[dS]-[Pra]-Arg-aldehyde): the IC50 against human plasmin was 0.25 to 2.5 µM; at Urokinase (Abbokinase), less than 0.1 µM; at Human rt-PA (Activase), greater than 2.5 µM.

In the case of `CN(CC(=O)N[C@H](C=O)CCCNC(=N)N)C(=O)[C@@H](CO)NC(=O)OCc1ccccc1` [Compound 18, benzyloxycarbonyl-D-seryl-sarcosyl-argininal] (Cbz-[dS]-[Sar]-Arg-aldehyde), the results for the IC50 at Urokinase (Abbokinase) and on Human rt-PA (Activase) were 0.25 to 2.5 µM and greater than 2.5 µM, respectively.

As for `CCCC(NC(=O)[C@@H](CO)NC(=O)OCc1ccccc1)C(=O)NC(C=O)CCCNC(=N)N` (some centres unmarked) [Compound 16], the figures for the IC50 at Urokinase (Abbokinase) and on Human rt-PA (Activase) were 0.1 to 0.25 µM and greater than 2.5 µM, respectively.

Regarding `N=C(N)NCCCC(C=O)NC(=O)C1CCN1C(=O)C(CO)NS(=O)(=O)c1ccccc1` [Compound 31, benzenesulfonyl-D-seryl-azetidyl-argininal], the IC50 on human plasmin was 0.25 to 2.5 µM; at Urokinase (Abbokinase) (setting [1]) it was less than 0.1 µM.

In the case of `C[C@H](NC(=O)[C@@H](C)NC(=O)OCc1ccccc1)C(=O)N[C@H](C=O)CCCNC(=N)N` [Compound 21, benzyloxycarbonyl-D-alanyl-alanyl-argininal] (Cbz-[dA]-Ala-Arg-aldehyde), the IC50 at Urokinase (Abbokinase) lay within 0.1 to 0.25 µM.

In the case of `C[C@H](NC(=O)[C@@H](CO)NS(=O)(=O)/C=C/c1ccccc1)C(=O)N[C@H](C=O)CCCNC(=N)N` [Compound 53, trans-β-Styrenesulfonyl-D-seryl-L-alanyl-argininal], the IC50 on human plasmin was 0.25 to 2.5 µM; against Urokinase (Abbokinase), less than 0.1 µM; at Human rt-PA (Activase) it was greater than 2.5 µM.

In the case of `CC1CCC(C(C)C)C(OC(=O)N[C@H](CO)C(=O)N[C@@H](C)C(=O)N[C@H](C=O)CCCNC(=N)N)C1` (single isomer, unassigned; (+)) [Compound 7, (+)menthyloxy-carbonyl-D-seryl-alanyl-argininal], the IC50 against Urokinase (Abbokinase) was less than 0.1 µM; on Human rt-PA (Activase) it was greater than 2.5 µM.

On to `C=CC[C@H](NC(=O)[C@@H](CO)NC(=O)OCc1ccccc1)C(=O)N[C@H](C=O)CCCNC(=N)N` [Compound 52, benzyloxycarbonyl-D-seryl-L-allylglycyl-argininal] (Cbz-[dS]-[AllylGly]-Arg-aldehyde), for which the IC50 against human plasmin was 0.25 to 2.5 µM; at Urokinase (Abbokinase), 0.1 to 0.25 µM; at Human rt-PA (Activase), greater than 2.5 µM.

Take `COC(=O)N[C@H](CO)C(=O)N[C@@H](C)C(=O)N[C@H](C=O)CCCNC(=N)N` [Compound 8, methyloxycarbonyl-D-seryl-alanyl-argininal] (Moc-[dS]-Ala-Arg-aldehyde): the IC50 on Urokinase (Abbokinase) was less than 0.1 µM; on Human rt-PA (Activase) it was greater than 2.5 µM.

Take `C[C@H](NC(=O)[C@H](NC(=O)OCc1ccccc1)[C@H](C)O)C(=O)N[C@H](C=O)CCCNC(=N)N` [Compound 22, benzyloxycarbonyl-D-threonyl-alanyl-argininal] (Cbz-[dT]-Ala-Arg-aldehyde): the 50% inhibitory concentration (IC50) is 0.25 to 2.5 µM against Urokinase (Abbokinase) and greater than 2.5 µM at Human rt-PA (Activase).

On to `C[C@H](NC(=O)[C@@H](CNC(=O)OCc1ccccc1)NC(=O)OCc1ccccc1)C(=O)N[C@H](C=O)CCCNC(=N)N` [Compound 42, N-α-N-β-dibenzyloxycarbonyl-D-2,3-diaminopropionyl-alanyl-argininal] (Cbz-[dDap](Cbz)-Ala-Arg-aldehyde), for which the results for the IC50 against human plasmin, on Urokinase (Abbokinase) and at Human rt-PA (Activase) were 0.1 to 0.25 µM, 0.1 to 0.25 µM and greater than 2.5 µM, respectively.

`N=C(N)NCCC[C@@H](C=O)NC(=O)[C@@H]1C=CCN1C(=O)[C@@H](CO)NC(=O)OCc1ccccc1` [Compound 50, benzyloxycarbonyl-D-seryl-L-3,4-dehydroprolyl-argininal] (Cbz-[dS]-[ΔPro]-Arg-aldehyde): the 50% inhibitory concentration (IC50) was 0.1 to 0.25 µM against human plasmin, less than 0.1 µM against Urokinase (Abbokinase) and greater than 2.5 µM at Human rt-PA (Activase).

As for `N=C(N)NCCC[C@@H](C=O)NC(=O)[C@@H]1CCN1C(=O)[C@@H](CO)NC(=O)OCc1ccccc1` [Compound 12, benzyloxycarbonyl-D-seryl-L-azetidine-2-carbonyl-argininal] (Cbz-[dS]-[Aze]-Arg-aldehyde), the IC50 against human plasmin is 0.25 to 2.5 µM; on Urokinase (Abbokinase) it was less than 0.1 µM; at Human rt-PA (Activase), greater than 2.5 µM.

Consider `CC[C@H](NC(=O)[C@@H](CO)NC(=O)OCc1ccccc1)C(=O)N[C@H](C=O)CCCNC(=N)N` [Compound 14], for which the IC50 at Urokinase (Abbokinase) was less than 0.1 µM; at Human rt-PA (Activase) it was greater than 2.5 µM.

On to `C[C@H](NC(=O)[C@@H](CO)NC(=O)NCC1CCCCC1)C(=O)N[C@H](C=O)CCCNC(=N)N` [Compound 37, cyclohexylmethylazacarbonyl-D-seryl-alanyl-argininal], for which the IC50 on human plasmin is greater than 2.5 µM; at Urokinase (Abbokinase), 0.1 to 0.25 µM; at Human rt-PA (Activase), greater than 2.5 µM.

As to `C[C@H](O)[C@@H](NC(=O)OCc1ccccc1)C(=O)N1CCC[C@H]1C(=O)N[C@H](C=O)CCCNC(=N)N` [Compound 26, benzyloxycarbonyl-D-threonyl-prolyl-argininal] (Cbz-[dT]-Pro-Arg-aldehyde), the values for the IC50 against Urokinase (Abbokinase) and at Human rt-PA (Activase) were 0.1 to 0.25 µM and greater than 2.5 µM, respectively.

On to `N=C(N)NCCC[C@@H](C=O)NC(=O)[C@@H]1CCCCN1C(=O)[C@@H](CO)NC(=O)OCc1ccccc1` [Compound 13], for which the IC50 is 0.1 to 0.25 µM against Urokinase (Abbokinase) and greater than 2.5 µM at Human rt-PA (Activase).

For `N=C(N)NCCCC(C=O)NC(=O)CNC(=O)[C@@H](CO)NC(=O)OCc1ccccc1` (some centres unmarked) [Compound 17], the values for the IC50 on Urokinase (Abbokinase) and at Human rt-PA (Activase) were 0.1 to 0.25 µM and greater than 2.5 µM, respectively.

Turning to `CCCCOC(=O)N[C@H](CO)C(=O)N[C@@H](C)C(=O)N[C@H](C=O)CCCNC(=N)N` [Compound 9, n-butyloxycarbonyl-D-seryl-alanyl-argininal], the results for the half-inhibitory concentration (IC50) against Urokinase (Abbokinase) and on Human rt-PA (Activase) were less than 0.1 µM and greater than 2.5 µM, respectively.

In the case of `CC1CCC(C(C)C)C(OC(=O)N[C@H](CO)C(=O)N[C@@H](C)C(=O)N[C@H](C=O)CCCNC(=N)N)C1` (single isomer, unassigned; (-)) [Compound 3, (−)menthyloxy-carbonyl-D-seryl-alanyl-argininal], the IC50 is less than 0.1 µM at Urokinase (Abbokinase) (setting [1]) and greater than 2.5 µM on Human rt-PA (Activase).

As for `CSC[C@H](NC(=O)[C@@H](CO)NC(=O)OCc1ccccc1)C(=O)N[C@H](C=O)CCCNC(=N)N` [Compound 15, benzyloxycarbonyl-D-seryl-S-methylcysteinyl-argininal] (Cbz-[dS]-Cys(Me)-Arg-aldehyde), the half-maximal inhibitory concentration (IC50) against Urokinase (Abbokinase) was 0.1 to 0.25 µM; on Human rt-PA (Activase), greater than 2.5 µM.

Consider `C[C@H](NC(=O)[C@H](CO)NC(=O)OCc1ccccc1)C(=O)N[C@H](C=O)CCCNC(=N)N` [Compound 23, benzyloxycarbonyl-seryl-alanyl-argininal] (Cbz-Ser-Ala-Arg-aldehyde), for which the half-maximal inhibitory concentration (IC50) against Urokinase (Abbokinase) is 0.25 to 2.5 µM; at Human rt-PA (Activase), greater than 2.5 µM.

As to `C[C@@H](O)[C@@H](NC(=O)OCc1ccccc1)C(=O)N(C)CC(=O)N[C@H](C=O)CCCNC(=N)N` [Compound 24, benzyloxycarbonyl-D-allothreonyl-sarcosyl-argininal] (Cbz-[d(aThr)]-[Sar]-Arg-aldehyde), the IC50 at Urokinase (Abbokinase) was 0.1 to 0.25 µM.

Turning to `C[C@H](NC(=O)[C@@H](CO)NC(=O)Oc1ccccc1)C(=O)N[C@H](C=O)CCCNC(=N)N` [Compound 5, phenoxycarbonyl-D-seryl-alanyl-argininal], the half-maximal inhibitory concentration (IC50) is less than 0.1 µM against Urokinase (Abbokinase) and greater than 2.5 µM on Human rt-PA (Activase).

At Urokinase (Abbokinase), `C[C@@H](O)[C@@H](NC(=O)OCc1ccccc1)C(=O)N(C)[C@@H](C)C(=O)N[C@H](C=O)CCCNC(=N)N` [Compound 25, benzyloxycarbonyl-D-allothreonyl-N-methylalanyl-argininal] (Cbz-[d(aThr)]-[NMeA]-Arg-aldehyde) returned an IC50 of 0.1 to 0.25 µM.

On to `C[C@H](NC(=O)[C@@H](CO)NC(=O)OCC1c2ccccc2-c2ccccc21)C(=O)N[C@H](C=O)CCCNC(=N)N` [Compound 10, Fluorenylmethyloxycarbonyl-D-seryl-alanyl-argininal] (Fmoc-[dS]-Ala-Arg-aldehyde), for which the values for the IC50 on Urokinase (Abbokinase) and on Human rt-PA (Activase) were less than 0.1 µM and greater than 2.5 µM, respectively.

Turning to `C[C@H](NC(=O)[C@@H](CO)NC(=O)Oc1ccc2ccccc2c1)C(=O)N[C@H](C=O)CCCNC(=N)N` [Compound 4, 2-naphthyloxy-carbonyl-D-seryl-alanyl-argininal], the figures for the half-maximal inhibitory concentration (IC50) against Urokinase (Abbokinase) and on Human rt-PA (Activase) were less than 0.1 µM and greater than 2.5 µM, respectively.

With `C[C@H](NC(=O)[C@@H](NC(=O)OCc1ccccc1)[C@@H](C)O)C(=O)N[C@H](C=O)CCCNC(=N)N` [Compound 20, benzyloxycarbonyl-threonyl-alanyl-argininal] (Cbz-Thr-Ala-Arg-aldehyde), the 50% inhibitory concentration (IC50) against Urokinase (Abbokinase) is 0.1 to 0.25 µM; at Human rt-PA (Activase) it was greater than 2.5 µM.

In the case of `CCCCC(CC)COC(=O)N[C@H](CO)C(=O)N[C@@H](C)C(=O)N[C@H](C=O)CCCNC(=N)N` (stereo partly drawn) [Compound 6, 2-ethylhexyloxy-carbonyl-D-seryl-alanyl-argininal], the values for the IC50 against Urokinase (Abbokinase) and at Human rt-PA (Activase) were less than 0.1 µM and greater than 2.5 µM, respectively.
